According to patent publication US9546162B2, “Compounds and methods for skin repair” (Allergan, Inc., priority 2013, dated 2017):
Like-named read-outs stand apart in the source and are kept apart here.

Tests used:
EP4 [1] = target: T1, EP4 (Homo sapiens (Human), UniProt P35408); test: EP4 radioligand binding (Ki), [3H]PGE2; details: EP4, HEK-293 membranes
Description: (§1) HEK-293 cells stably expressing the human or feline FP receptor, or EP1, EP2, or EP4 receptors were washed with TME buffer, scraped from the bottom of the flasks, and homogenized for 30 sec using a Brinkman PT 10/35 polytron. TME buffer was added to achieve a final 40 ml volume in the centrifuge tubes (the composition of TME is 100 mM TRIS base, 20 mM MgCl2, […]; 10N HCl is added to achieve a pH of 7.4).
(§2) The cell homogenate was centrifuged at 19000 r.p.m. for 20 min at 4° C. using a Beckman Ti-60 rotor. The resultant pellet was resuspended in TME buffer to give a final 1 mg/ml protein concentration, as determined by Biorad assay. Radioligand binding competition assays vs. [^3H-]17-phenyl PGF2a (5 nM) were performed in a 100 μl volume for 60 min. Binding reactions were started by adding plasma membrane fraction. The reaction was terminated by the addition of 4 ml ice-cold TRIS-HCl buffer and rapid filtration through glass fiber GF/B filters using a Brandel cell harvester. The filters were washed 3 times with ice-cold buffer and oven dried for one hour.
(§3) [^3H—] PGE2 (specific activity 180 Ci mmol) was used as the radioligand for EP receptors. [^3H] 17-phenyl PGF2a was employed for FP receptor binding studies. Binding studies employing EP1, EP2, EP4 and FP receptors were performed in duplicate in at least three separate experiments. A 200 μl assay volume was used. Incubations were for 60 min at 25° C. and were terminated by the addition of 4 ml of ice-cold 50 mM TRIS-HCl, followed by rapid filtration through Whatman GF/B filters and three additional 4 ml washes in a cell harvester (Brandel). Competition studies were performed using a final concentration of 5 nM [^3H]-PGE2, or 5 nM [^3H] 17-phenyl PGF2a and non-specific binding determined with 10^−5M of unlabeled PGE2, or 17-phenyl PGF2a, according to receptor subtype studied.

EP4 [2] = target: T1, EP4; test: EP4 cAMP EC50; type: cell-based
EP2 [3] = target: T2, EP2 (Homo sapiens (Human), UniProt P43116); test: EP2 competition binding (Ki), [3H]PGE2; details: EP2, HEK 293 cells
T2 sequence (P43116 whole entry): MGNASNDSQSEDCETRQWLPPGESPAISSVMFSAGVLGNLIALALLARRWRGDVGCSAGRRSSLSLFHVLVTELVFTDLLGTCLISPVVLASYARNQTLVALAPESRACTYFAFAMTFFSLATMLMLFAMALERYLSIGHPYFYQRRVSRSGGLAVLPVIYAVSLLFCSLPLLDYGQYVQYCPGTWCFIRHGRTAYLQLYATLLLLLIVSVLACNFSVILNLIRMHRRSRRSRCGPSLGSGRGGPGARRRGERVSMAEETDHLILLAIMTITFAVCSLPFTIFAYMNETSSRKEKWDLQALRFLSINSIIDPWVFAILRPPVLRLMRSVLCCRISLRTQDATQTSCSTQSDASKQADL
Description: Competition binding experiments were performed in a medium containing Hank's balanced salt solution, Hepes 20 mM, pH 7.3, membranes (˜60 μg protein) or 2×10^5 cells from HEK 293 cells stably expressing human EP2 receptors, [^3H]PGE2 (10 nM) and various concentrations of test compounds in a total volume of 300 μl. Reaction mixtures were incubated at 23° C. for 60 min, and were filtered over Whatman GF/B filters under vacuum. Filters were washed three times with 5 ml ice-cold buffer containing 50 mM Tris/HCl (pH 7.3). Non-specific binding was estimated in the presence of excess unlabeled PGE2 (10 μM). Binding data fitted to the binding model for a single class of binding sites, using nonlinear regression analysis.
as §1, §2, §3

EP2 [4] = target: T2, EP2; test: EP2 cAMP EC50; type: cell-based

T1 sequence (P35408 whole entry): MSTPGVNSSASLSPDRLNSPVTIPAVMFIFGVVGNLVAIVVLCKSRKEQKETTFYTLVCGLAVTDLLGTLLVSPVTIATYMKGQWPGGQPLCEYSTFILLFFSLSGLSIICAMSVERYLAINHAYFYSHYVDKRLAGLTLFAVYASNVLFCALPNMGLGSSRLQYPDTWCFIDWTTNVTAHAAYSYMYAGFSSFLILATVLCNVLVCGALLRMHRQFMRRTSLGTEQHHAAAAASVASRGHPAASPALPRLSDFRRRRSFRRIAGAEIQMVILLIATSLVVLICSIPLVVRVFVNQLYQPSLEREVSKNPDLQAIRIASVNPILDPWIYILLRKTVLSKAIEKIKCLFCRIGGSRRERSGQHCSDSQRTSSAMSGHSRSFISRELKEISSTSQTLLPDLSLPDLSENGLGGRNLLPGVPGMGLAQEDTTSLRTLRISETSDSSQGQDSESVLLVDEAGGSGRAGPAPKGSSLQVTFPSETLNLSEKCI

| SMILES | EP4 Ki (EP4 [1]; read-out: EP4 Ki EC50) [nM] | EC50 (EP4 [2]) [nM] | Ki (EP2 [3]) [nM] | EC50 (EP2 [4]) [nM] | EP4 Ki (EP4 [1]) [nM] | EP4 cAMP EC50 (EP4 [2]) [µM] | EP2 Ki (EP2 [3]) [µM] |
| --- | --- | --- | --- | --- | --- | --- | --- |
| COc1cc(CC2CCc3cccc(CCc4ccc(C(=O)O)cc4)c32)cc(OC)c1 (stereo not shown) [Entry 1] | 3 | 7.2 | 2 |  |  |  |  |
| COc1cc(/C=C2\CCc3cccc(CCc4ccc(C(=O)O)cc4)c32)cc(OC)c1 [Entry 2] | 42 | 7 | 95 | 28 |  |  |  |
| COc1cc(CC2=CCCc3cccc(CCc4ccc(C(=O)O)cc4)c32)cc(OC)c1 [Entry 3] | 90 | 43 | 116 | 130 |  |  |  |
| COc1ccc(OC)c(CC2=CCc3cccc(CCc4ccc(C(=O)O)cc4)c32)c1 [Entry 4] | 52 | 71 | 61 |  |  |  |  |
| COc1cccc(CC2=CCc3cccc(CCc4ccc(C(=O)O)cc4)c32)c1OC [Entry 6] | 251 | 562 | 53 |  |  |  |  |
| O=C(O)c1ccc(CCc2cccc3c2N(Cc2ccc4ccccc4c2)CC3)cc1 [Entry 6] | 174 |  |  |  |  |  |  |
| COc1ccc(CC2=CCc3cccc(CCc4ccc(C(=O)O)cc4)c32)cc1OC [Entry 7] | 34 | 33 | 20 | 161 |  |  |  |
| O=C(O)c1ccc(CCc2cccc3c2N(Cc2cc(OCc4ccccc4)cc(OCc4ccccc4)c2)CC3)cc1 [Entry 7] | 5850 |  |  |  |  |  |  |
| COc1ccccc1CC1=CCc2cccc(CCc3ccc(C(=O)O)cc3)c21 [Entry 8] | 71 | 107 | 67 | 57 |  |  |  |
| O=C(O)c1ccc(CCc2cccc3c2N(Cc2ccc4c(c2)OCO4)CC3)cc1 [Entry 8] | 453 |  |  |  |  |  |  |
| COc1cc(CN2CCCc3cccc(CCc4ccc(C(=O)O)cc4)c32)cc(OC)c1 [Entry 9] | 453 |  |  |  |  |  |  |
| COc1ccc(CC2=CCc3cccc(CCc4ccc(C(=O)O)cc4)c32)cc1 [Entry 9] | 195 | 93 | 27 | 114 |  |  |  |
| COc1cccc(CCN2Cc3cccc(CCc4ccc(C(=O)O)cc4)c3C2)c1 [Entry 10] |  |  |  |  | > 10000 | > 10 |  |
| O=C(O)c1ccc(CCc2cccc3c2C(Cc2cc(Cl)cc(Cl)c2)=CC3)cc1 [Entry 10] | 56 | 23 | 18 | 2 |  |  |  |
| COc1cccc(CN2Cc3cccc(CCc4ccc(C(=O)O)cc4)c3C2)c1 [Entry 11] |  |  |  |  |  | > 10 |  |
| Cc1cc(C)cc(CC2=CCc3cccc(CCc4ccc(C(=O)O)cc4)c32)c1 [Entry 11] | 240 | 220 | 6 | 13 |  |  |  |
| COc1cc(CC2=CCc3c(F)ccc(CCc4ccc(C(=O)O)cc4)c32)cc(OC)c1 [Entry 12] | 52 | 41 | 83 | 25 |  |  |  |

| SMILES | EP4 Ki (EP4 [1]; read-out: EP4 Ki EC50) [nM] | EC50 (EP4 [2]) [nM] | Ki (EP2 [3]) [nM] | EC50 (EP2 [4]) [nM] | EP4 Ki (EP4 [1]) [nM] | EP4 cAMP EC50 (EP4 [2]) [µM] | EP2 Ki (EP2 [3]) [µM] |
| --- | --- | --- | --- | --- | --- | --- | --- |
| COc1cc(CC2CCc3cccc(OCc4ccc(C(=O)O)cc4)c32)cc(OC)c1 (stereo not shown) [Entry 13] | 154 | 16 | 469 |  |  |  |  |
| COc1cc(CN2CCc3cccc(CCc4ccc(C(=O)O)s4)c32)cc(OC)c1 [Entry 13] | 161 |  | 47 |  |  |  |  |
| COc1cc(/C=C2\CCc3cccc(OCc4ccc(C(=O)O)cc4)c32)cc(OC)c1 [Entry 14] | 1490 |  |  |  |  | > 10 | > 10 |
| COc1cc(CC2=CCc3cccc(CCc4ccc(C(=O)O)cc4)c32)cc(OC)c1 [Entry 15] | 0.8 | 1 | 3 | 11 |  |  |  |
| COc1cccc(Cn2ccc3cccc(CCc4ccc(C(=O)O)cc4)c32)c1 [Entry 15] |  | 3130 |  |  |  |  |  |
| COc1cc(CC2=CCc3ccc(OC)c(CCc4ccc(C(=O)O)cc4)c32)cc(OC)c1 [Entry 16] | 469 |  | 1700 |  |  |  |  |
| COc1cccc(CC(=O)N2CCc3cccc(CCc4ccc(C(=O)O)cc4)c32)c1 [Entry 17] |  |  |  |  |  | > 10 | > 10 |
| O=C(O)c1ccc(CCc2cccc3c2C(Cc2cc(C(F)(F)F)cc(C(F)(F)F)c2)=CC3)cc1 [Entry 17] | 736 | 296 | 8 |  |  |  |  |
| O=C(O)c1ccc(CCc2cccc3c2C(Cc2cc(F)cc(F)c2)=CC3)cc1 [Entry 18] | 134 | 57 | 27 | 6 |  |  |  |
| COc1cc(CC2=CCc3cc(F)cc(CCc4ccc(C(=O)O)cc4)c32)cc(OC)c1 [Entry 19] | 0.4 | 2 | 18 | 36 |  |  |  |
| COc1cc(OC)cc(S(=O)(=O)N2CCc3cccc(CCc4ccc(C(=O)O)cc4)c32)c1 [Entry 19] | 8230 |  | 776 |  |  | > 10 |  |
| COc1cc(CC2=CCc3cccc(-c4cccc(/C=C/C(=O)O)c4)c32)cc(OC)c1 [Entry 20] | 1230 |  |  |  |  |  | > 10 |
| COc1cccc(S(=O)(=O)N2CCc3cccc(CCc4ccc(C(=O)O)cc4)c32)c1 [Entry 20] |  |  |  |  | > 10000 | > 10 |  |
| COc1cc(CC2=CCc3cccc(/C=C/c4ccc(C(=O)O)cc4)c32)cc(OC)c1 [Entry 21] | 1200 |  | 4770 |  |  | > 10 |  |
| COc1cc(CC2=CCc3cccc(-c4cccc(OCC(=O)O)c4)c32)cc(OC)c1 [Entry 22] | 1170 |  |  |  |  |  | > 10 |
| COc1cc(CC2=CCc3cccc(-c4ccc(OCC(=O)O)cc4)c32)cc(OC)c1 [Entry 23] | 4470 |  |  |  |  | > 10 | > 10 |
| COc1cc(CC2=CCc3cccc(C#Cc4ccc(C(=O)O)cc4)c32)cc(OC)c1 [Entry 24] | 3600 |  |  |  |  | > 10 | > 10 |
